Data: patent publication US11091451B2, “SHMT inhibitors and uses thereof” (Raze Therapeutics, Inc., priority 2016, dated 2021)

Columns and labels:
[1] = biological target: human cytosolic Serine Hydroxymethyl transferase 1 (SHMT1) (Homo sapiens (Human), UniProt P34896); experiment: SHMT1 activity inhibition assay (serine production from glycine and CH2-THF, mass spectroscopy); type: biochemical; conditions: 60 minutes at room temperature
Source text: (§1) Full length human cytosolic Serine Hydroxymethyl transferase 1 (SHMT1, residues 1-483 in Uniport ID P34896) was expressed as an N-terminal His6 tagged protein and purified in E. coli using nickel capture followed by size-exclusion chromatography. Human mitochondrial SHMT2 (residues 30-504 in Uniprot ID P34897) with mitochondrial leader sequence deleted was expressed as an N-terminal His6 tagged protein and purified in E. coli using nickel capture followed by size-exclusion chromatography.
(§2) Serine hydroxymethyltransferases catalyze the reversible hydroxymethylation of glycine to serine, with methylene tetrahydrofolate (CH2-THF) providing the additional carbon. SHMT1 and SHMT2 activity was determined by measuring serine production from glycine and CH2-THF using mass spectroscopy. Briefly, 15 ul of 0.5 mM glycine and 0.2 mM CH2-THF in 20 mM TEA, pH8.0, 0.2 mM NADPH were added to 384 well plate containing 0, 0.05 mM, 0.005 mM or 0.0005 mM of inhibitor. 15 ul of SHMT1 or 2 were added to initiate the reaction. The plate was incubated for 60 minutes at room temperature and the reaction was quenched by the addition of 30 ul of 10% trichloroacetic acid. Serine produced was analyzed using Rapidfire 360 and API4000^+ in the positive ion mode.

[2] = biological target: Human mitochondrial SHMT2 (Homo sapiens (Human), UniProt P34897); experiment: SHMT2 activity inhibition assay (serine production from glycine and CH2-THF, mass spectroscopy); type: biochemical; conditions: 60 minutes at room temperature
Source text: as §1
as §2, with “15 ul of SHMT1 or 2 were added to initiate the reaction.” left out

Sequence of Human mitochondrial SHMT2 (P34897 30-504): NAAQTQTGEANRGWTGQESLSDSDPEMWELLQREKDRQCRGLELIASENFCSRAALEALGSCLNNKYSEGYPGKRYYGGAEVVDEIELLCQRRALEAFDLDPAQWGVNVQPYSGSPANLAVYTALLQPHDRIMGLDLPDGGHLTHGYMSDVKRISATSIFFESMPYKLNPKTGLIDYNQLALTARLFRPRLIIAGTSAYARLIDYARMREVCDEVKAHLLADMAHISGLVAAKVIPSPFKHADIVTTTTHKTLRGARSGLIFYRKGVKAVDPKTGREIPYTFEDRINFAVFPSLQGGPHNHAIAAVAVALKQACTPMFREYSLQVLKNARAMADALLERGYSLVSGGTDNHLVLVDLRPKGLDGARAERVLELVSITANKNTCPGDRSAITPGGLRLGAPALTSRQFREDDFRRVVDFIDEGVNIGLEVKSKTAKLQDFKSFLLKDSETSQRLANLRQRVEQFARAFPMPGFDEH
Sequence of human cytosolic Serine Hydroxymethyl transferase 1 (SHMT1) (P34896 whole entry, the tested form may be a part): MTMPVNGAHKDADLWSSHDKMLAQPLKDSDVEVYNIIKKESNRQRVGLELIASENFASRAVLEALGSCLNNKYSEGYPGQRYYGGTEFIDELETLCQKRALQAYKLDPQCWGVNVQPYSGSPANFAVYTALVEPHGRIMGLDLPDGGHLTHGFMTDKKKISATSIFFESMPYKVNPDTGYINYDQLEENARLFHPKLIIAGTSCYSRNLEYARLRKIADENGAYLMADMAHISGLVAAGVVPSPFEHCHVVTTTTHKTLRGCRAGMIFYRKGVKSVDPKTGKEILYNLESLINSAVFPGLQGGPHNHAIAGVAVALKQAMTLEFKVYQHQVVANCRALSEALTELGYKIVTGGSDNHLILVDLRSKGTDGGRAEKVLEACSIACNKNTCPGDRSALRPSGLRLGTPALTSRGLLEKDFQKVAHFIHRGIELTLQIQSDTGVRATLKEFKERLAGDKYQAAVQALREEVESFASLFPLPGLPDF

Structure (SMILES)	IC50 [1]	IC50 [2]
C[C@H](NC(=O)Cc1csc(-c2cccc(Br)c2)n1)C(=O)O [Compound I-39]	10 to 100 µM	10 to 100 µM
O=C(O)CNC(=O)Cc1csc(-c2ccc(Cl)c3ccccc23)n1 [Compound I-40, 2-[2-[2-(4-chloronaphthalen-1-yl)-1,3-thiazol-4-yl]acetamido]acetic Acid]	10 to 100 µM	10 to 100 µM
O=C(O)CNC(=O)Cc1cccc(-c2ccc(Cl)cc2Cl)c1 [Compound I-41]	10 to 100 µM	10 to 100 µM
O=C(Cc1csc(-c2ccc(Cl)cc2Cl)n1)N[C@@H](Cc1ccccc1)C(=O)O [Compound I-42]	10 to 100 µM	100 to 500 µM
CC(NC(=O)Cc1csc(-c2cccc(Br)c2)n1)C(=O)O (stereo not shown) [Compound I-43]	10 to 100 µM	10 to 100 µM
NC(=O)NCCC[C@@H](NC(=O)Cc1csc(-c2ccc(F)cc2)n1)C(=O)O [Compound I-44]	10 to 100 µM	100 to 500 µM
O=C(Cc1csc(-c2ccc(Cl)cc2Cl)n1)NC1(C(=O)O)CC1 [Compound I-45]	10 to 100 µM	10 to 100 µM
O=C(O)CNC(=O)Cc1csc(-c2ccc(Cl)cc2Cl)n1 [Compound I-46]	10 to 100 µM	10 to 100 µM
CC(C)C[C@H](NC(=O)Cc1csc(-c2ccc(Cl)cc2Cl)n1)C(=O)O [Compound I-47]	100 to 500 µM	100 to 500 µM
CSCC[C@H](NC(=O)Cc1csc(-c2ccc(Cl)cc2Cl)n1)C(=O)O [Compound I-48]	100 to 500 µM	100 to 500 µM
O=C(Cc1csc(-c2cccc(Cl)c2)n1)N[C@@H](Cc1c[nH]c2ccccc12)C(=O)O [Compound I-49]	100 to 500 µM	100 to 500 µM
O=C(O)CNC(=O)Cc1csc(-c2ccc(OC(F)(F)F)cc2)n1 [Compound I-50]	100 to 500 µM	100 to 500 µM
CC(C)c1ccc(-c2nc(CC(=O)N[C@@H](Cc3c[nH]c4ccccc34)C(=O)O)cs2)cc1 [Compound I-51]	100 to 500 µM	100 to 500 µM
O=C(Cc1csc(-c2cccc(Br)c2)n1)N[C@@H](Cc1ccccc1)C(=O)O [Compound I-52]	100 to 500 µM	100 to 500 µM
CC(C)c1ccc(-c2nc(CC(=O)N[C@@H](C(=O)O)c3ccccc3)cs2)cc1 [Compound I-54]	100 to 500 µM	100 to 500 µM
O=C(Cc1csc(-c2ccc(Cl)cc2Cl)n1)N[C@@H](C(=O)O)c1ccccc1 [Compound I-55]	100 to 500 µM	100 to 500 µM
CC(C)c1ccc(-c2nc(CC(=O)N[C@@H](Cc3ccccc3)C(=O)O)cs2)cc1 [Compound I-56]	100 to 500 µM	100 to 500 µM
COc1ccccc1-c1nc(CC(=O)N[C@@H](C)C(=O)O)cs1 [Compound I-57]	100 to 500 µM	10 to 100 µM
CC(C)[C@H](NC(=O)Cc1csc(-c2ccc(Cl)cc2Cl)n1)C(=O)O [Compound I-58]	100 to 500 µM	100 to 500 µM
O=C(O)CNC(=O)Cc1csc(-c2cccc(Cl)c2Cl)n1 [Compound I-59]	100 to 500 µM	100 to 500 µM

Now from value to compound:

IC50 [1]	IC50 [2]	Structure (SMILES)
100 to 500 µM	100 to 500 µM	O=C(Cc1csc(-c2cccc(Br)c2)n1)NC(Cc1ccccc1)C(=O)O (stereo not shown) [Compound I-60]
100 to 500 µM	10 to 100 µM	COc1ccccc1-c1nc(CC(=O)NC(C)C(=O)O)cs1 (stereo not shown) [Compound I-61]
100 to 500 µM	100 to 500 µM	O=C(O)CNC(=O)Cc1csc(-c2ccc3c(c2)OCCO3)n1 [Compound I-62, 2-[2-[2-(2,3-dihydro-1,4-benzodioxin-6-yl)-1,3-thiazol-4-yl]acetamido]acetic Acid]
100 to 500 µM	100 to 500 µM	O=C(Cc1csc(-c2ccc(Cl)cc2)n1)N[C@@H](C(=O)O)c1ccccc1 [Compound I-63]
100 to 500 µM	100 to 500 µM	CC(C)(C(=O)NCC(=O)O)c1csc(-c2ccc(Cl)cc2Cl)n1 [Compound I-64, 2-[2-[2-(2,4-dichlorophenyl)-1,3-thiazol-4-yl]-2-methylpropanamido]acetic Acid]
100 to 500 µM	100 to 500 µM	NC(=O)Cc1cc(Cl)ccc1-c1nc(CC(=O)NCC(=O)O)cs1 [Compound I-65, 2-(2-[2-[2-(carbamoylmethyl)-4-chlorophenyl]-1,3-thiazol-4-yl]acetamido)acetic Acid]
100 to 500 µM	> 500 µM	O=C(O)CNC(=O)C(c1ccccc1)c1csc(-c2ccc(Cl)cc2Cl)n1 (stereo not shown) [Compound I-66]
100 to 500 µM	100 to 500 µM	CC[C@@H](C)[C@H](NC(=O)Cc1csc(-c2ccc(Cl)cc2Cl)n1)C(=O)O [Compound I-67]
100 to 500 µM	100 to 500 µM	O=C(Cc1csc(-c2cccc(Cl)c2)n1)N[C@@H](Cc1ccccc1)C(=O)O [Compound I-68]
100 to 500 µM	100 to 500 µM	O=C(Cc1csc(-c2ccccc2Cl)n1)N[C@@H](Cc1ccccc1)C(=O)O [Compound I-69]
100 to 500 µM	100 to 500 µM	O=C(O)CNC(=O)Cc1csc(-c2ccc(Cl)cc2CCO)n1 [Compound I-70, 2-(2-[2-[4-chloro-2-(2-hydroxyethyl)phenyl]-1,3-thiazol-4-yl]acetamido) acetic Acid]
100 to 500 µM	100 to 500 µM	C[C@H](NC(=O)Cc1csc(-c2ccccc2F)n1)C(=O)O [Compound I-71]
